Measured values: patent publication US20240034736A1, “HSD17B13 INHIBITORS AND USES THEREOF” (FL2022-001, Inc., priority 2020, published 2024)

Target: Recombinant human HSD17B13 enzyme (Homo sapiens (Human), UniProt Q7Z5P4)
Test: HSD17b13 NAD(P)H-Glo Biochemical Assay
Settings: for IC50: 50 uM estradiol, 1 mM NAD+, read-out: HSD17β13 IC50
In short: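 Recombinant human HSD17B13 was pre-incubated with inhibitor for 20 min at RT in 20 mM Tris pH 7.4 with 0.002% Tween-20 and 0.02% BSA. Reaction then ran with 50 uM estradiol and 1 mM NAD+ (final) for 3 h at 37° C. NADH formed was detected by NAD(P)H-Glo luminescence after 1 h at RT.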

Chain of Recombinant human HSD17B13 enzyme (Q7Z5P4 20-300): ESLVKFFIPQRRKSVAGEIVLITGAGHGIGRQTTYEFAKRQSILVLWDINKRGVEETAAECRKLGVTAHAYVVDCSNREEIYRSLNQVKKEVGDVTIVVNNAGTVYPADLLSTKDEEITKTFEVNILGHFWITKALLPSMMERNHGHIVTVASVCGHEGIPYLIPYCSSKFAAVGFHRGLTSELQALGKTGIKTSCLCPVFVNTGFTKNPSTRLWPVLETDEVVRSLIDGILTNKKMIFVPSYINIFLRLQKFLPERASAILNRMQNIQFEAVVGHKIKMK

| IC50 [nM] | inhibition at 30 µM (read-out: HSD17β13 inhibition at 30 uM) [%] | SMILES |
| --- | --- | --- |
| 1000 to 30000 | – | O=S1(=O)CCN(c2ccc3c(cnn3-c3cc(O)c(F)c(F)c3)c2)CC1 [Compound 21.08, 4-(1-(3,4-Difluoro-5-hydroxy-phenyl)-1H-indazol-5-yl)-thiomorpholine 1,1-dioxide] |
| 100 to 1000 | – | O=S(=O)(c1ccccc1)N1CCN(c2ccc3c(cnn3-c3cc(O)c(F)c(F)c3)c2)CC1 [Compound 21.09, 2,3-Difluoro-5-(5-(4-(phenyl-sulfonyl)piperazin-1-yl)-1H-indazol-1-yl)phenol] |
| 100 to 1000 | – | O=S(=O)(Cc1ccccc1)N1CCN(c2ccc3c(cnn3-c3cc(O)c(F)c(F)c3)c2)CC1 [Compound 21.10, 5-(5-(4-(Benzylsulfonyl)-piperazin-1-yl)-1H-indazol-1-yl)-2,3-difluorophenol] |
| 1000 to 30000 | – | Cc1cc2c(cnn2-c2cc(O)c(F)c(F)c2)cc1N1CCN(S(C)(=O)=O)CC1 [Compound 21.11, 2,3-Difluoro-5-(6-methyl-5-(4-(methylsulfonyl)piperazin-1-yl)-1H-indazol-1-yl)phenol] |
| 1000 to 30000 | – | CS(=O)(=O)N1CCN(c2ccc3c(c2)c(C2CC2)nn3-c2cc(O)c(F)c(F)c2)CC1 [Compound 21.12, 5-(3-Cyclopropyl-5-(4-(meth-ylsulfonyl)piperazin-1-yl)-1H-indazol-1-yl)-2,3-difluoro-phenol] |
| 100 to 1000 | – | CS(=O)(=O)N1CCN(c2cc3cnn(-c4cc(O)c(F)c(F)c4)c3cc2Cl)CC1 [Compound 21.13, 5-(6-Chloro-5-(4-(methyl-sulfonyl)piperazin-1-yl)-1H-indazol-1-yl)-2,3-difluoro-phenol] |
| 1000 to 30000 | – | Cc1c(N2CCN(S(C)(=O)=O)CC2)ccc2c1cnn2-c1cc(O)c(F)c(F)c1 [Compound 21.14, 2,3-Difluoro-5-(4-methyl-5-(4-(methylsulfonyl)piperazin-1-yl)-1H-indazol-1-yl)phenol] |
| 1000 to 30000 | – | CS(=O)(=O)N1CCN(c2ccc3c(cnn3-c3cc(O)c(F)c(F)c3)c2Cl)CC1 [Compound 21.15, 5-(4-Chloro-5-(4-(methyl-sulfonyl)piperazin-1-yl)-1H-indazol-1-yl)-2,3-difluoro-phenol] |
| 1000 to 30000 | – | CS(=O)(=O)N1CCN(c2cc(Cl)c3c(cnn3-c3cc(O)c(F)c(F)c3)c2)CC1 [Compound 21.16, 5-(7-Chloro-5-(4-(methyl-sulfonyl)piperazin-1-yl)-1H-indazol-1-yl)-2,3-difluoro-phenol] |
| – | 47 | Cc1cc(N2CCN(S(C)(=O)=O)CC2)cc2cnn(-c3cc(O)c(F)c(F)c3)c12 [Compound 21.17, 2,3-Difluoro-5-(7-methyl-5-(4-(methylsulfonyl)piperazin-1-yl)-1H-indazol-1-yl)phenol] |
| 1000 to 30000 | – | CS(=O)(=O)N1CCN(c2ccc3c(cnn3-c3cc(O)c(F)c(F)c3)n2)CC1 [Compound 21.18, 2,3-Difluoro-5-(5-(4-(methyl-sulfonyl)piperazin-1-yl)-1H-pyrazolo[4,3-b]pyridine-1-yl)-phenol] |
| 1000 to 30000 | – | CS(=O)(=O)N1CCN(c2cc3cnn(-c4cc(O)c(F)c(F)c4)c3cc2C(F)(F)F)CC1 [Compound 21.19, 2,3-Difluoro-5-(5-(4-(methyl-sulfonyl)piperazin-1-yl)-6-(trifluoromethyl)-1H-indazol-1-yl)phenol] |
| 100 to 1000 | – | COC1CCN(c2ccc3c(cnn3-c3cc(O)c(F)c(F)c3)c2)CC1 [Compound 21.20, 2,3-Difluoro-5-(5-(4-methoxy-piperidin-1-yl)-1H-indazol-1-yl)phenol] |
| 100 to 1000 | – | COC1CCN(c2cc3cnn(-c4cc(O)c(F)c(F)c4)c3cc2Cl)CC1 [Compound 21.21, 5-(6-Chloro-5-(4-methoxy-piperidin-1-yl)-1H-indazol-1-yl)-2,3-difluorophenol] |
| 1000 to 30000 | – | COC1CCN(c2ccc3c(cnn3-c3cc(O)c(F)c(F)c3)c2)C1 (stereo not shown) [Compound 21.22, 2,3-Difluoro-5-(5-(3-methoxy-pyrrolidin-1-yl)-1H-indazol-1-yl)phenol] |
| 100 to 1000 | – | CS(=O)(=O)N1CCN(c2cc3cnn(-c4cc(O)c(F)c(F)c4)c3cc2C#N)CC1 [Compound 21.23, 1-(3,4-Difluoro-5-hydroxy-phenyl)-5-(4-(methylsulfonyl)-piperazin-1-yl)-1H-indazole-6-carbonitrile] |
| 100 to 1000 | – | CS(=O)(=O)N1CCN(c2cc3cnn(-c4cc(O)c(F)c(F)c4)c3cc2F)CC1 [Compound 21.24, 2,3-Difluoro-5-(6-fluoro-5-(4-(methylsulfonyl)piperazin-1-yl)-1H-indazol-1-yl)phenol] |
| 1000 to 30000 | – | COC1CN(c2ccc3c(cnn3-c3cc(O)c(F)c(F)c3)c2)C1 [Compound 21.25, 2,3-Difluoro-5-(5-(3-methoxy-azetidin-1-yl)-1H-indazol-1-yl)phenol] |
| 100 to 1000 | – | CS(=O)(=O)N1CCCN(c2ccc3c(cnn3-c3cc(O)c(F)c(F)c3)c2)CC1 [Compound 21.26, 2,3-Difluoro-5-(5-(4-(methyl-sulfonyl)-1,4-diazepan-1-yl)-1H-indazol-1-yl)phenol] |

| IC50 [nM] | inhibition at 30 µM (read-out: HSD17β13 inhibition at 30 uM) [%] | SMILES |
| --- | --- | --- |
| 100 to 1000 | – | CS(=O)(=O)N1CC2(CN(c3ccc4c(cnn4-c4cc(O)c(F)c(F)c4)c3)C2)C1 [Compound 21.27, 2,3-Difluoro-5-(5-(6-(methyl-sulfonyl)-2,6-diazaspiro[3.3]-heptan-2-yl)-1H-indazol-1-yl)phenol] |
| 100 to 1000 | – | CC(C)S(=O)(=O)N1CCN(c2cc3cnn(-c4cc(O)c(F)c(F)c4)c3cc2Cl)CC1 [Compound 21.28, 5-(6-Chloro-5-(4-(isopropyl-sulfonyl)piperazin-1-yl)-1H-indazol-1-yl)-2,3-difluoro-phenol] |
| 100 to 1000 | – | CC1(C)CN(c2ccc3c(cnn3-c3cc(O)c(F)c(F)c3)c2)CCN1S(C)(=O)=O [Compound 21.29, 5-(5-(3,3-Dimethyl-4-(methyl-sulfonyl)piperazin-1-yl)-1H-indazol-1-yl)-2,3-difluoro-phenol] |
| 1000 to 30000 | – | CC1(C)CN(S(C)(=O)=O)CCN1c1ccc2c(cnn2-c2cc(O)c(F)c(F)c2)c1 [Compound 21.30, 5-(5-(2,2-Dimethyl-4-(methyl-sulfonyl)piperazin-1-yl)-1H-indazol-1-yl)-2,3-difluoro-phenol] |
| 100 to 1000 | – | CS(=O)(=O)C1CN(c2ccc3c(cnn3-c3cc(O)c(F)c(F)c3)c2)C1 [Compound 21.31, 2,3-Difluoro-5-(5-(3-(methyl-sulfonyl)azetidin-1-yl)-1H-indazol-1-yl)phenol] |
| 100 to 1000 | – | O=S(=O)(C1CC1)N1CCN(c2cc3cnn(-c4cc(O)c(F)c(F)c4)c3cc2Cl)CC1 [Compound 21.32, 5-(6-Chloro-5-(4-(cycloprop-ylsulfonyl)piperazin-1-yl)-1H-indazol-1-yl)-2,3-difluoro-phenol] |
| 100 to 1000 | – | CC(C)S(=O)(=O)NC1CN(c2cc3cnn(-c4cc(O)c(F)c(F)c4)c3cc2Cl)C1 [Compound 21.33, N-(1-(6-Chloro-1-(3,4-difluoro-5-hydroxyphenyl)-1H-indazol-5-yl)azetidin-3-yl)propane-2-sulfonamide] |
| 100 to 1000 | – | O=S(=O)(NC1CN(c2cc3cnn(-c4cc(O)c(F)c(F)c4)c3cc2Cl)C1)c1ccccc1 [Compound 21.34, N-(1-(6-Chloro-1-(3,4-difluoro-5-hydroxyphenyl)-1H-indazol-5-yl)azetidin-3-yl)benzene-sulfonamide] |
| 1000 to 30000 | – | CNS(=O)(=O)C1CN(c2ccc3c(cnn3-c3cc(O)c(F)c(F)c3)c2)C1 [Compound 21.35, 1-(1-(3,4-Difluoro-5-hydroxy-phenyl)-1H-indazol-5-yl)-N-methylazetidine-3-sulfonamide] |
| 100 to 1000 | – | CN(C)S(=O)(=O)C1CN(c2ccc3c(cnn3-c3cc(O)c(F)c(F)c3)c2)C1 [Compound 21.36, 1-(1-(3,4-Difluoro-5-hydroxy-phenyl)-1H-indazol-5-yl)-N,N-dimethylazetidine-3-sulfon-amide] |
| 100 to 1000 | – | O=S(=O)(CC1CC1)NC1CN(c2cc3cnn(-c4cc(O)c(F)c(F)c4)c3cc2Cl)C1 [Compound 21.37, N-(1-(6-Chloro-1-(3,4-difluoro-5-hydroxyphenyl)-1H-indazol-5-yl)azetidin-3-yl)-1-cyclo-propylmethanesulfonamide] |
| 100 to 1000 | – | O=S(=O)(CC1CC1)N1CCN(c2cc3cnn(-c4cc(O)c(F)c(F)c4)c3cc2Cl)CC1 [Compound 21.38, 5-(6-Chloro-5-(4-((cycloprop-ylmethyl)sulfonyl)piperazin-1-yl)-1H-indazol-1-yl)-2,3-difluorophenol] |
| 100 to 1000 | – | O=S(=O)(c1ccccc1)N1CCN(c2cc3cnn(-c4cc(O)c(F)c(F)c4)c3cc2Cl)CC1 [Compound 21.39, 5-(6-Chloro-5-(4-(phenyl-sulfonyl)piperazin-1-yl)-1H-indazol-1-yl)-2,3-difluoro-phenol] |
| 100 to 1000 | – | CS(=O)(=O)N1CCN(c2cc3cnn(-c4cc(O)c(F)c(F)c4)c3cn2)CC1 [Compound 21.40, 2,3-Difluoro-5-(5-(4-(methyl-sulfonyl)piperazin-1-yl)-1H-pyrazolo[3,4-c]pyridine-1-yl)-phenol] |
| 100 to 1000 | – | CS(=O)(=O)N1CCN(c2cc3cnn(-c4cc(O)c(F)c(C(F)(F)F)c4)c3cn2)CC1 [Compound 21.41, 2-Fluoro-5-(5-(4-(methyl-sulfonyl)piperazin-1-yl)-1H-pyrazolo[3,4-c]pyridine-1-yl)-3-(trifluoromethyl)phenol] |
| 100 to 1000 | – | Oc1cc(-n2ncc3cc(N4CCCCC4)ncc32)cc(C(F)(F)F)c1F [Compound 21.42, 2-Fluoro-5-(5-(piperidin-1-yl)-1H-pyrazolo[3,4-c]pyridine-1-yl)-3-(trifluoromethyl)phenol] |
| 100 to 1000 | – | CC1(C)CCN(c2cc3cnn(-c4cc(O)c(F)c(C(F)(F)F)c4)c3cn2)CC1 [Compound 21.43, 5-(5-(4,4-Dimethylpiperidin-1-yl)-1H-pyrazolo[3,4-c]-pyridine-1-yl)-2-fluoro-3-(trifluoromethyl)phenol] |
| < 100 | – | Oc1cc(-n2ncc3cc(N4CCC5(CC4)CC5)ncc32)cc(C(F)(F)F)c1F [Compound 21.44, 5-(5-(6-Azaspiro[2.5]octan-6-yl)-1H-pyrazolo[3,4-c]pyridine-1-yl)-2-fluoro-3-(trifluoro-methyl)phenol] |
